Reference: US6355799B1, “Substituted benzene compounds, process for their preparation, and herbicidal and defoliant compositions containing them” (ISK Americas Incorporated, priority 1997, dated 2002)

Experiments:
Assay type in all cases: in vivo
[1] = system: upland rice (Oryza sp., var. Tebonnet, RICE); assay: Pre-emerge test, crop safety; details: crop damage rating 0-100, 14 days after application
Summary of the method: (§1)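 Plants grown in 10 cm pots of sandy loam mix received acetone-dissolved compounds through a moving flat-fan nozzle. Doses ranged from 15 to 1000 g ai/ha. Pre-emerge pots were seeded one day earlier, post-emerge pots 8–21 days earlier. Fourteen days on, each pot was graded 0–100 for damage.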

[2] = system: field corn (Zea mays L., var. Dekalb 535, CORN); assay: Pre-emerge test, crop safety; details: crop damage rating 0-100, 14 days after application
Summary of the method: as §1

[3] = system: redroot pigweed (Amaranthus retroflexus, AMARE); assay: Pre-emerge test, greenhouse herbicide activity screening; details: phytotoxicity rating 0-100, 14 days after application
Summary of the method: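 Compounds in acetone were track-sprayed at 187 l/ha, 15–1000 g ai/ha, onto sandy loam pots. Pre-emerge seeds were sown one day before spraying, with surface watering afterwards. Post-emerge plants were at the 2–3 leaf stage and sprayed with 0.25% v/v non-ionic surfactant. Injury was rated 0–100 at 14 days.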

[4] = system: upland rice (Oryza sp., var. Tebonnet, RICE); assay: Post-emerge test, crop safety; details: post-emerge, 63 g ai/ha, 14 days after application, rating scale 0-100
Summary of the method: (§2)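 Compounds in acetone were track-sprayed at 15-1000 g ai/ha (187 l/ha) on sandy loam pots: pre-emerge one day after seeding, post-emerge at 2-3 leaf stage with 0.25% v/v non-ionic surfactant. Phytotoxicity was rated 14 days later on a 0 (no damage) to 100 (complete death) scale.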

[5] = system: field corn (Zea mays L., var. Dekalb 535, CORN); assay: Post-emerge test, crop safety; details: post-emerge, 14 days after application, rating scale 0-100
Summary of the method: as §2

[6] = system: barnyardgrass (Echinochloa crus-galli, ECHCG); assay: Pre-emerge test, greenhouse herbicide activity screening; details: phytotoxicity rating 0-100, 14 days after application
Summary of the method: as §2

[7] = system: johnsongrass (Sorghum halepense, SORHA); assay: as above; details: phytotoxicity rating 0-100, 14 days after application
Summary of the method: as §2

[8] = system: lambsquarters (Chenopodium album, CHEAL); assay: as above; details: phytotoxicity rating 0-100, 14 days after application
Summary of the method: as §2

[9] = system: sicklepod (Cassia obtusifolia, CASOB); assay: as above; details: phytotoxicity rating 0-100, 14 days after application
Summary of the method: as §2

[10] = system: large crabgrass (Digitaria sanguinalis, DIGSA); assay: as above; details: phytotoxicity rating 0-100, 14 days after application
Summary of the method: as §2

[11] = system: ivyleaf morningglory (Ipomoea hederacea, IPOHE); assay: as above; details: phytotoxicity rating 0-100, 14 days after application
Summary of the method: as §2

[12] = system: common ragweed (Ambrosia artemisizfolia L., AMBEL); assay: as above; details: phytotoxicity rating 0-100, 14 days after application
Summary of the method: as §2

[13] = system: green foxtail (Setaria viridis, SETVI); assay: as above; details: phytotoxicity rating 0-100, 14 days after application
Summary of the method: as §2

[14] = system: velvetleaf (Abutilon theophrasti, ABUTH); assay: as above; details: phytotoxicity rating 0-100, 14 days after application
Summary of the method: as §2

[15] = system: redroot pigweed (Amaranthus retroflexus, AMARE); assay: Post-emerge test, greenhouse herbicide activity screening; details: post-emerge, 14 days after application
Summary of the method: as §2

[16] = system: barnyardgrass (Echinochloa crus-galli, ECHCG); assay: as above; details: post-emerge, 14 days after application, rating scale 0-100
Summary of the method: as §2

[17] = system: johnsongrass (Sorghum halepense, SORHA); assay: as above; details: post-emerge, 14 days after application, rating scale 0-100
Summary of the method: as §2

[18] = system: lambsquarters (Chenopodium album, CHEAL); assay: as above; details: post-emerge, 14 days after application, rating scale 0-100
Summary of the method: as §2

[19] = system: sicklepod (Cassia obtusifolia, CASOB); assay: as above; details: post-emerge, 14 days after application, rating scale 0-100
Summary of the method: as §2

[20] = system: large crabgrass (Digitaria sanguinalis, DIGSA); assay: as above; details: post-emerge, 14 days after application, rating scale 0-100
Summary of the method: as §2

[21] = system: ivyleaf morningglory (Ipomoea hederacea, IPOHE); assay: as above; details: post-emerge, 14 days after application, rating scale 0-100
Summary of the method: as §2

[22] = system: common ragweed (Ambrosia artemisizfolia L., AMBEL); assay: as above; details: post-emerge, 14 days after application, rating scale 0-100
Summary of the method: as §2

[23] = system: green foxtail (Setaria viridis, SETVI); assay: as above; details: post-emerge, 14 days after application, rating scale 0-100
Summary of the method: as §2

[24] = system: velvetleaf (Abutilon theophrasti, ABUTH); assay: as above; details: post-emerge, 14 days after application, rating scale 0-100
Summary of the method: as §2

2-(4-chloro-3-ethoxy-6-fluoro-2-naphthoylamidophenyl)-1-methyl-6-trifluoromethyl-2,4(1H, 3H)-pyrimidinedione [Compound 2-196]
Pre-emerge Herbicidal Activity RICE ([1]; 63 g ai/ha): 20 | Pre-emerge Herbicidal Activity RICE ([1]; 250 g ai/ha): 50 | Pre-emerge Herbicidal Activity CORN ([2]; 63 g ai/ha): 0 | Pre-emerge Herbicidal Activity CORN ([2]; 250 g ai/ha): 0 | Pre-emerge Herbicidal Activity AMARE ([3]; 63 g ai/ha): 100 | Pre-emerge Herbicidal Activity AMARE ([3]; 250 g ai/ha): 100 | phytotoxicity rating RICE (crop damage) [4]: 30 | phytotoxicity rating CORN (crop damage) ([5]; 63 g ai/ha): 10 | phytotoxicity rating CORN (crop damage) ([5]; 250 g ai/ha): 15 | Pre-emerge Herbicidal Activity ECHCG ([6]; 63 g ai/ha): 40 | Pre-emerge Herbicidal Activity ECHCG ([6]; 250 g ai/ha): 85 | Pre-emerge Herbicidal Activity SORHA ([7]; 63 g ai/ha): 10 | Pre-emerge Herbicidal Activity SORHA ([7]; 250 g ai/ha): 20 | Pre-emerge Herbicidal Activity CHEAL ([8]; 63 g ai/ha): 100 | Pre-emerge Herbicidal Activity CHEAL ([8]; 250 g ai/ha): 100 | Pre-emerge Herbicidal Activity CASOB ([9]; 63 g ai/ha): 0 | Pre-emerge Herbicidal Activity CASOB ([9]; 250 g ai/ha): 60 | Pre-emerge Herbicidal Activity DIGSA ([10]; 63 g ai/ha): 90 | Pre-emerge Herbicidal Activity DIGSA ([10]; 250 g ai/ha): 100 | Pre-emerge Herbicidal Activity IPOHE ([11]; 63 g ai/ha): 20 | Pre-emerge Herbicidal Activity IPOHE ([11]; 250 g ai/ha): 70 | Pre-emerge Herbicidal Activity AMBEL ([12]; 63 g ai/ha): 30 | Pre-emerge Herbicidal Activity AMBEL ([12]; 250 g ai/ha): 90 | Pre-emerge Herbicidal Activity SETVI ([13]; 63 g ai/ha): 90 | Pre-emerge Herbicidal Activity SETVI ([13]; 250 g ai/ha): 100 | Pre-emerge Herbicidal Activity ABUTH ([14]; 63 g ai/ha): 100 | Pre-emerge Herbicidal Activity ABUTH ([14]; 250 g ai/ha): 100 | phytotoxicity rating AMARE ([15]; 63 g ai/ha, rating scale 0-100 (0 no damage, 100 complete death)): 100 | phytotoxicity rating AMARE ([15]; 250 g ai/ha, rating scale 0-100): 100 | phytotoxicity rating ECHCG ([16]; 63 g ai/ha): 10 | phytotoxicity rating ECHCG ([16]; 250 g ai/ha): 10 | phytotoxicity rating SORHA ([17]; 63 g ai/ha): 10 | phytotoxicity rating SORHA ([17]; 250 g ai/ha): 10 | phytotoxicity rating CHEAL ([18]; 63 g ai/ha): 100 | phytotoxicity rating CHEAL ([18]; 250 g ai/ha): 100 | phytotoxicity rating CASOB ([19]; 63 g ai/ha): 100 | phytotoxicity rating CASOB ([19]; 250 g ai/ha): 100 | phytotoxicity rating DIGSA ([20]; 63 g ai/ha): 10 | phytotoxicity rating DIGSA ([20]; 250 g ai/ha): 20 | phytotoxicity rating IPOHE ([21]; 63 g ai/ha): 90 | phytotoxicity rating IPOHE ([21]; 250 g ai/ha): 100 | phytotoxicity rating AMBEL ([22]; 63 g ai/ha): 100 | phytotoxicity rating AMBEL ([22]; 250 g ai/ha): 90 | phytotoxicity rating SETVI ([23]; 63 g ai/ha): 30 | phytotoxicity rating SETVI ([23]; 250 g ai/ha): 20 | phytotoxicity rating ABUTH ([24]; 63 g ai/ha): 100 | phytotoxicity rating ABUTH ([24]; 250 g ai/ha): 100
